According to patent US5124326A, “Pharmaceutically efficacious pteridine derivatives” (Roehm GmbH Chemische Fabrik, priority 1989, dated 1992):
≈ marks a conversion by molar mass, not a printed value. Like-named read-outs stand apart in the source and are kept apart here.

Tests used:
[1] = distribution coefficient log P; format: physicochemical; conditions: for logD: read-out: lipophilicity log P; for logP: from the preparation examples
[2] = solubility in isotonic phosphate buffer pH 7.4; format: physicochemical; conditions: for solubility: aqueous buffer
urine volume, Na^+, K^+ = assay: diuresis test in rats (urine volume, Na+, K+ excretion; dose/response, ED50); format: in vivo, Male Wister rats; conditions: for ED50: Rattus norvegicus; for ED50 / Na^+/K^+ quotient i.v. / Na^+/K^+ quotient p.o.: rats
Procedure: The compounds of formula I and their acid addition salts, with physiologically tolerable acids are quite suitable for peroral and intravenous medication. The diuresis tests were conducted according to the following method. Diuresis Tests/Method Male Wister rats, weighing approximately 130 g, were used in the tests. Food had been withdrawn from the rats for 18 hours. Immediately before the intravenous administration of the test substance, they were fed orally a quantity of 20 ml/kg of 0.9% NaCl solution. […] Under a slight anesthesia, administration was by the caudal vein. Generally six experimental animals were used per test. The peroral administration was by means of probang in the gastrointestinal region. The substances were administered in a mixture comprising Tylose® and physiological NaCl solution, which serves simultaneously as the hydration agent ([…]). The animals were placed individually into diuresis cages and urine was collected after 2.5 or 3 or 6 hours. The electrolytes (Na^+ K^+, Mg^+2) were determined by means of flame photometry and by means of atomic absorption measurement with the FL6 automatic electrolyte equipment from Zeiss/Oberkochen. Curves for dose/response correlations were obtained with the aid of non-linear regression analysis with the NONLIN computer program by C. Daniel and F. S. Wood in "Fitting Equations to Data", J. Wiley & Sons, New York, 1980. Thus, the characteristic value ED50 (=potency) applied to determine the diuretic efficacy is defined as the quantity of active substance per kg of body weight, which is necessary for the semi-maximum effect.

[3] = resorption rate from renal recovery following p.o. and i.v. administration; format: in vivo, Male Wister rats; conditions: rat, urine, po; quotient of urinary recovery p.o./i.v.; rats
Procedure: Male Wister rats, weighing approximately 130 g, were used in the tests. Food had been withdrawn from the rats for 18 hours. Immediately before the intravenous administration of the test substance, they were fed orally a quantity of 20 ml/kg of 0.9% NaCl solution. […] Under a slight anesthesia, administration was by the caudal vein. Generally six experimental animals were used per test. The peroral administration was by means of probang in the gastrointestinal region. The substances were administered in a mixture comprising Tylose® and physiological NaCl solution, which serves simultaneously as the hydration agent ([…]). The animals were placed individually into diuresis cages and urine was collected after 2.5 or 3 or 6 hours. The electrolytes (Na^+ K^+, Mg^+2) were determined by means of flame photometry and by means of atomic absorption measurement with the FL6 automatic electrolyte equipment from Zeiss/Oberkochen. The renal recovery of the test substances serves as a means of measuring resorption following oral administration. The resorption rate is determined from the quotients of the recovery rates following peroral (p.o.) and intravenous (i.v.) administration, as given in percent. The recovery rate notes the renally excreted quantity based on the medicated quantity of the active substances. The concentration of the test substances in the urine of the animals is determined in accordance with thin-layer chromatographic separation by means o spectrophotometry.

metabolization = conditions: in vivo
[4] = isotonic phosphate buffer, pH = 7.4, read-out: solubility
[5] = iv, duration 2.5 h, read-out: ED50 (potency), urine K^+
[6] = iv, duration 2.5 h, read-out: ED50 (potency), urine Na^+
[7] = iv, duration 2.5 h, read-out: ED50 (potency), urine volume
[8] = iv, duration 6 h, read-out: ED50 (potency), urine K^+
[9] = iv, duration 6 h, read-out: ED50 (potency), urine Na^+
[10] = iv, duration 6 h, read-out: ED50 (potency), urine volume
[11] = po, duration 3 h, read-out: ED50 (potency), urine K^+
[12] = po, duration 3 h, read-out: ED50 (potency), urine Na^+
[13] = po, duration 3 h, read-out: ED50 (potency), urine volume
[14] = po, duration 6 h, read-out: ED50 (potency), urine K^+
[15] = po, duration 6 h, read-out: ED50 (potency), urine Na^+
[16] = po, duration 6 h, read-out: ED50 (potency), urine volume
[17] = isotonic phosphate buffer pH 7.4, read-out: solubility in isotonic phosphate buffer

SMILES | solubility [2, 4] | ED50 (urine volume, Na^+, K^+; [5]) | ED50 (urine volume, Na^+, K^+; [6]) | ED50 (urine volume, Na^+, K^+; [7]) | ED50 (urine volume, Na^+, K^+; [8]) | ED50 (urine volume, Na^+, K^+; [9]) | ED50 (urine volume, Na^+, K^+; [10]) | Na^+/K^+ quotient i.v. (urine volume, Na^+, K^+) | Na^+/K^+ quotient p.o. (urine volume, Na^+, K^+) | Fa [3] | logD ([1]; pH = 7.4) | solubility [2, 17] | further results
Nc1nc(N)c2nc(-c3ccccc3)c(N)nc2n1 [Triamterene, 2,4,7-triamino-6-phenylpteridine, reference compound] | 21 µg/mL (≈ 82.9 µM) | 11.2 µmol/kg | 2.38 µmol/kg | 13.9 µmol/kg | 9.79 µmol/kg | 10.6 µmol/kg | 10.6 µmol/kg | 8 | 6 | ~80% |  |  | lipophilicity log P ([1]; pH = 7.4): 1.26; ED50 (urine volume, Na^+, K^+; [11]): 3.38 µmol/kg; ED50 (urine volume, Na^+, K^+; [12]): 6.17 µmol/kg; ED50 (urine volume, Na^+, K^+; [13]): 6.4 µmol/kg; ED50 (urine volume, Na^+, K^+; [14]): 8.39 µmol/kg; ED50 (urine volume, Na^+, K^+; [15]): 5.06 µmol/kg; ED50 (urine volume, Na^+, K^+; [16]): 6.57 µmol/kg
CN(C)Cc1ccc(-c2nc3c(N)nc(N)nc3nc2N)cc1 [compound IA, 2,4,7-Triamino-6-[4-(dimethylaminomethyl)phenyl]pteridine] | 580 µg/mL (≈ 1870 µM) |  |  |  |  |  |  | 9 | 18 | 11% | -0.36 |  | 
Nc1nc(N)c2nc(-c3ccc(CN4CCC(Cc5ccccc5)CC4)cc3)c(N)nc2n1 [compound IB, 2,4,7-Triamino-6-[4-(4-benzylpiperidinomethyl)phenyl]pteridine] |  |  |  |  |  |  |  | 17 | 4 | < 1% | 2.7 | 1.1 µg/mL (≈ 2.5 µM) | 
CC(C)N(Cc1ccccc1)Cc1ccc(-c2nc3c(N)nc(N)nc3nc2N)cc1 [compound IC, 2,4,7-Triamino-6-[4-(N-benzyl-N-isopropylaminomethyl)phenyl]pteridien] | 1.9 µg/mL (≈ 4.58 µM) |  |  |  |  |  |  | 7 | 13 |  | 3.2 |  | metabolization (metabolization): is metabolized quantitatively
Nc1nc(N)c2nc(-c3ccc(CN4CCCCC4)cc3)c(N)nc2n1 [compound ID, 2,4,7-Triamino-6-[4-(piperidinomethyl)phenyl]pteridine] | 76 µg/mL (≈ 217 µM) |  |  |  |  |  |  | 37 | 7 | 19% | 0.2 |  | 
CC1CCN(Cc2ccc(-c3nc4c(N)nc(N)nc4nc3N)cc2)CC1 [compound IE, 2,4,7-Triamino-6-[4-(4-methylpiperidinomethyl)phenyl]pteridine] | 139 µg/mL (≈ 381 µM) | 5.4 µmol/kg | 3.13 µmol/kg | 2.65 µmol/kg | 5.9 µmol/kg | 12.7 µmol/kg | 8.24 µmol/kg | 27 | 14 | 31% | 0.89 |  | increased solubility in comparison to Triamterene ([2]; pH 7.4 in phosphate buffer, vs Triamterene): 6.5 fold; ED50 (urine volume, Na^+, K^+; [11]): 2.16 µmol/kg; ED50 (urine volume, Na^+, K^+; [12]): 9.49 µmol/kg; ED50 (urine volume, Na^+, K^+; [13]): 11.8 µmol/kg; ED50 (urine volume, Na^+, K^+; [14]): 2.41 µmol/kg; ED50 (urine volume, Na^+, K^+; [15]): 12.7 µmol/kg; ED50 (urine volume, Na^+, K^+; [16]): 14.8 µmol/kg; potassium-saving potency in comparison to Triamterene (urine volume, Na^+, K^+; following peroral administration, vs Triamterene): higher potassium-saving potency; metabolization (metabolization): No metabolization
CC1CCCC(C)N1Cc1ccc(-c2nc3c(N)nc(N)nc3nc2N)cc1 (stereo not drawn) [compound IF, 2,4,7-Triamino-6-[4-(2,6-dimethylpiperidinomehyl)phenyl]pteridine] | 25 µg/mL (≈ 66.1 µM) |  |  |  |  |  |  | 21 | 15 | 33% | 0.68 |  | 
CC1CC(C)CN(Cc2ccc(-c3nc4c(N)nc(N)nc4nc3N)cc2)C1 (stereo not drawn) [compound IG, 2,4,7-Triamino-6-[4-(3,5-dimethylpiperidinomethyl)phenyl]pteridine] | 13 µg/mL (≈ 34.3 µM) |  |  |  |  |  |  | 39 | 7 | 23% | 1.74 |  | 
CN(C)CCCc1ccc(-c2nc3c(N)nc(N)nc3nc2N)cc1 [compound IH, 2,4,7-Triamino-6-[40(3-dimethylaminopropyl)phenyl]pteridine] |  | 1.41 µmol/kg | 1.44 µmol/kg | 1.23 µmol/kg | 1.3 µmol/kg | 1.83 µmol/kg | 1.7 µmol/kg | 12 | 7 | 3% | -0.6 | 2000 µg/mL (≈ 5910 µM) | logP [1]: -0.6
CN(C)CCc1ccc(-c2nc3c(N)nc(N)nc3nc2N)cc1 [compound IJ, 2,4,7-Triamino-6-[4-(2-dimethylaminoethyl)phenyl]pteridine] |  | 1.04 µmol/kg | 1.63 µmol/kg | 2.36 µmol/kg | 2.6 µmol/kg | 1.64 µmol/kg | 2.61 µmol/kg | 10 | 6 | 4% | -0.59 | 2200 µg/mL (≈ 6780 µM) | logP [1]: -0.59
CC1CCCC(C)N1CCCc1ccc(-c2nc3c(N)nc(N)nc3nc2N)cc1 (stereo not drawn) [compound IL, 2,4,7-Triamino-6-[4-(3-(2,6-dimethylpiperidino)propyl)phenyl]pteridine] | 1500 µg/mL (≈ 3690 µM) |  |  |  |  |  |  | 170 | 8 | 3% | 0.04 |  | 
CC1CC(C)CN(CCCc2ccc(-c3nc4c(N)nc(N)nc4nc3N)cc2)C1 (stereo not drawn) [compound IM, 2,4,7-Triamino-6-[4-(3-(3,5-dimethylpiperidino)propyl)phenyl]pteridine] |  |  |  |  |  |  |  | 128 | 27 | 7% | 1.18 | 135 µg/mL (≈ 332 µM) | logP [1]: 1.18
